In ChEMBL document CHEMBL3885861, “Open TG-GATES”:
*1 amine or outer side, *2 acyl side, *3 side chain or, on linkers, in order; H or OH if unused. Where a SMILES comes first, the peptide text is derived from it. Bridges are numbered along the chain shown (N, C = ends). [ ]: non-standard residue; d: D form. Trp(2-yl) = O=C([C@H](Cc1c([*:3])[nH]c2ccccc12)N[*:1])[*:2]; Leu(4R-OH,5-OH) = C[C@](O)(CO)C[C@H](N)C(=O)O; cisHyp = O=C(O)[C@@H]1C[C@H](O)CN1

Organism: Rattus norvegicus
Experiment: Open TG-GATES - Regimen: Daily Repeat
Format: toxicity, organism-based, Sprague-Dawley
Parameters: regimen Daily Repeat, gender Male, age 6 weeks
Conditions: in vivo, ip, 1 mg/kg, route intraperitoneal injection, dose level High; for APTT / Bas / Eos / Fbg / Hb / Ht / Lym / MCH / MCHC / MCV / Mono / Neu / PT / Plat / RBC / Ret / WBC: tissue Blood; for KIDNEY_L / KIDNEY_R / KIDNEY_TOTAL: tissue Kidney; for LIVER: tissue Liver; for A/G / ALP / ALT / AST / BUN / CRE / Ca / Cl / DBIL / GLC / IP / K / LDH / Na / PL / RALB / TBIL / TC / TG / TP / gamma-GTP: tissue Plasma

SMILES: C[C@@H]1NC(=O)[C@H](C[C@@](C)(O)CO)NC(=O)[C@@H]2Cc3c([nH]c4ccccc34)SC[C@H](NC(=O)[C@@H]([C@H](C)O)NC1=O)C(=O)N1C[C@@H](O)C[C@H]1C(=O)N[C@@H](C)C(=O)N2 [PHALLOIDIN] (cyclo(A[dT]C[cisHyp]A[Trp(2-yl)][Leu(4R-OH,5-OH)]); thioether 3-6)
- TERMINAL_BW (72 h, time 3 day): 218.4 g
- APTT (72 h, time 3 day): 19.4 s
- Bas (72 h, time 3 day): 0%
- Eos (72 h, time 3 day): 1.2%
- Fbg (72 h, time 3 day): 270.8 mg/dL
- Hb (72 h, time 3 day): 13.5 g/dL
- Ht (72 h, time 3 day): 42.3%
- Lym (72 h, time 3 day): 78.2%
- MCH (72 h, time 3 day): 20.3 pg
- MCHC (72 h, time 3 day): 32%
- MCV (72 h, time 3 day): 63.4 fL
- Mono (72 h, time 3 day): 3.2%
- Neu (72 h, time 3 day): 16.8%
- PT (72 h, time 3 day): 15.5 s
- Plat (72 h, time 3 day): 119.3 x10_4/uL
- RBC (72 h, time 3 day): 667.2 x10_4/ul
- Ret (72 h, time 3 day): 6.7%
- WBC (72 h, time 3 day): 88.5 x10_2/uL
- KIDNEY_L (72 h, time 3 day): 1.1 g
- KIDNEY_R (72 h, time 3 day): 1.1 g
- KIDNEY_TOTAL (72 h, time 3 day): 2.1 g
- LIVER (72 h, time 3 day): 12 g
- A/G (72 h, time 3 day): 1.1
- ALP (72 h, time 3 day): 2057 IU/L
- ALT (72 h, time 3 day): 49 IU/L
- AST (72 h, time 3 day): 85.6 IU/L
- BUN (72 h, time 3 day): 13.2 mg/dL
- CRE (72 h, time 3 day): 0.1 mg/dL
- Ca (72 h, time 3 day): 11.1 mg/dL
- Cl (72 h, time 3 day): 105.4 meq/L
- DBIL (72 h, time 3 day): 0.066 mg/dL
- GLC (72 h, time 3 day): 168.8 mg/dL
- IP (72 h, time 3 day): 8.3 mg/dL
- K (72 h, time 3 day): 5.2 meq/L
- LDH (72 h, time 3 day): 169.2 IU/L
- Na (72 h, time 3 day): 140.4 meq/L
- PL (72 h, time 3 day): 153.6 mg/dL
- RALB (72 h, time 3 day): 3 g/dL
- TBIL (72 h, time 3 day): 0.084 mg/dL
- TC (72 h, time 3 day): 107.4 mg/dL
- TG (72 h, time 3 day): 24.2 mg/dL
- TP (72 h, time 3 day): 5.8 g/dL
- gamma-GTP (72 h, time 3 day): 1.6 IU/L
- TERMINAL_BW ([…], time 7 day): 244 g
- APTT ([…], time 7 day): 17.6 s
- Bas ([…], time 7 day): 0%
- Eos ([…], time 7 day): 1.2%
- Fbg ([…], time 7 day): 254.4 mg/dL
- Hb ([…], time 7 day): 13.7 g/dL
- Ht ([…], time 7 day): 41.8%
- Lym ([…], time 7 day): 79.6%
- MCH ([…], time 7 day): 19.6 pg
- MCHC ([…], time 7 day): 32.9%
- MCV ([…], time 7 day): 59.6 fL
- Mono ([…], time 7 day): 3%
- Neu ([…], time 7 day): 15.8%
- PT ([…], time 7 day): 14.8 s
- Plat ([…], time 7 day): 150.8 x10_4/uL
- RBC ([…], time 7 day): 702.8 x10_4/ul
- Ret ([…], time 7 day): 4.1%
- WBC ([…], time 7 day): 147.5 x10_2/uL
- KIDNEY_L ([…], time 7 day): 1.1 g
- KIDNEY_R ([…], time 7 day): 1.1 g
- KIDNEY_TOTAL ([…], time 7 day): 2.2 g
- LIVER ([…], time 7 day): 13.9 g
- A/G ([…], time 7 day): 0.8
- ALP ([…], time 7 day): 2253.4 IU/L
- ALT ([…], time 7 day): 86.2 IU/L
- AST ([…], time 7 day): 202.2 IU/L
- BUN ([…], time 7 day): 15 mg/dL
- CRE ([…], time 7 day): 0.1 mg/dL
- Ca ([…], time 7 day): 10.7 mg/dL
- Cl ([…], time 7 day): 104.6 meq/L
- DBIL ([…], time 7 day): 0.3 mg/dL
- GLC ([…], time 7 day): 177.8 mg/dL
- IP ([…], time 7 day): 7.3 mg/dL
- K ([…], time 7 day): 4.8 meq/L
- LDH ([…], time 7 day): 258.2 IU/L
- Na ([…], time 7 day): 141 meq/L
- PL ([…], time 7 day): 168 mg/dL
- RALB ([…], time 7 day): 2.6 g/dL
- TBIL ([…], time 7 day): 0.4 mg/dL
- TC ([…], time 7 day): 115.6 mg/dL
- TG ([…], time 7 day): 28.6 mg/dL
- TP ([…], time 7 day): 5.8 g/dL
- gamma-GTP ([…], time 7 day): 3.2 IU/L
